Patent publication US9090651B2, “Helix 12 directed pharmaceutical products” (ENDORECHERCHE, INC., priority 2004, dated 2015)
Several values for one entry are separate records, joined by “and”; a condition that tells them apart may be missing. Equal values may be shown once. Read-outs that look alike come from different tables or passages of the source.

Legend:
[1] = test system: Shionogi mouse mammary carcinoma cells; test: Androgenic/antiandrogenic activity on DHT-stimulated Shionogi cell growth; format: cell-based
Human Androgen Receptor = target: T1, Human Androgen Receptor (Homo sapiens, UniProt P10275); test: Androgen receptor binding assay (hydroxylapatite, [3H]R1881, cytosol of transfected HEK-293 cells); conditions: % RBA=100×IC50 R1881/IC50 compound, transfected cells
T1 sequence (P10275 1-920): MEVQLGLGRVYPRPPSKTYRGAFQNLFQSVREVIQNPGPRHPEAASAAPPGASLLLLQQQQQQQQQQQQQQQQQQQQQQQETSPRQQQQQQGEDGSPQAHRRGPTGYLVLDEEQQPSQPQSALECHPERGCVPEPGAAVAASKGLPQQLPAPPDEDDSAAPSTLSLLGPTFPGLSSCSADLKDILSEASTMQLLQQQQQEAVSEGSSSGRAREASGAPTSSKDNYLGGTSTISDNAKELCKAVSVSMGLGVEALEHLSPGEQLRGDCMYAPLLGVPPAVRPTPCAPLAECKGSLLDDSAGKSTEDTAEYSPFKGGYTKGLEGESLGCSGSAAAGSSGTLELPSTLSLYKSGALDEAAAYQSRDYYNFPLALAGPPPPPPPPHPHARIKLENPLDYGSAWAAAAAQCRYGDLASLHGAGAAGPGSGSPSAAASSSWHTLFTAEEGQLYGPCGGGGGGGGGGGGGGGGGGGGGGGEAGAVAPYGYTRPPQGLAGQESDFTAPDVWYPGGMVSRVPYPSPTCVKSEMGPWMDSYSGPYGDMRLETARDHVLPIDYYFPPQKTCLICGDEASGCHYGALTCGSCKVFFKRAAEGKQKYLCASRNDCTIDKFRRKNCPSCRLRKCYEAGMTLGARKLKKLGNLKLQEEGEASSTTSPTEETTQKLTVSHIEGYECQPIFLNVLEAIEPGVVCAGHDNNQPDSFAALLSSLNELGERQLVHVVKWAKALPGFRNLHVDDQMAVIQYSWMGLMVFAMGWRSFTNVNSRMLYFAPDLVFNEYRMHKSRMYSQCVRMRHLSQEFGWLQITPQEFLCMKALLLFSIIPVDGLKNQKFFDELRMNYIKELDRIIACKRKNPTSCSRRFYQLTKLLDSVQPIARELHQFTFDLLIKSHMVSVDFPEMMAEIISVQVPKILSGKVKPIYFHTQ

[2] = Mus musculus, read-out: Shionogi Antiandrogenic activity IC50 (nM), inhibition of DHT-stimulated Shionogi cell number
[3] = read-out: Shionogi Antiandrogenic activity IC50, inhibition of DHT-stimulated Shionogi cell number

| SMILES | IC50 [1, 2] [nM] | Androgen Receptor Binding (%) Human RBA R1881 = 100 (Human Androgen Receptor) | IC50 [1, 3] |
| --- | --- | --- | --- |
| CC(C)CC(C)NCc1cccc(OCC[C@]23CCC4C(CCC5CC(=O)CC[C@@]54C)C2CC[C@@H]3O)c1 (stereo partly drawn) [EM-6403] | 5.6 | 54% | – |
| CC(C)CCN1CCCCC1c1cccc(OCC[C@]23CCC4C(CCC5CC(=O)CC[C@@]54C)C2CC[C@@H]3O)c1 (stereo partly drawn) [EM-6492] | 9.6 | 68% and 115% | 7.1 nM |
| C[C@]12CCC(=O)CC1CCC1C2CC[C@]2(CCOc3cccc(CNc4ccncc4)c3)C(O)CCC12 (stereo partly drawn) [EM-6856] | 32 | 6% | – |
| CCC(NC1CCCCC1)c1cncc(OCC[C@]23CCC4C(CCC5=CC(=O)CC[C@@]54C)C2CCC3O)c1 (stereo partly drawn) [EM-7094] | 1.4 | 70.8% | – |
| CCC(NC1CCCCC1)c1cncc(OCC[C@]23CCC4C(CCC5CC(=O)CC[C@@]54C)C2CCC3O)c1 (stereo partly drawn) [EM-7093] | 0.16 | 361.8% | – |
| C[C@]12CCC(=O)CC1CCC1C2CC[C@@]2(CCOc3cccc(CNC4CC5CCC4C5)c3)C1CC[C@@H]2O (stereo partly drawn) [EM-6471] | – | 13% | 6.4 nM and 9.6 nM |
| CCC(NC1CCCC1)c1cc(OCC[C@]23CCC4C(CCC5=CC(=O)CC[C@@]54C)C2CCC3O)ccn1 (stereo partly drawn) [EM-7165] | 1.4 | 26.6% | – |
| CCC(NC1CCOCC1)c1cccc(OCC[C@]23CCC4C(CCC5Cc6n[nH]cc6C[C@@]54C)C2CCC3O)c1 (stereo partly drawn) [EM-6867] | 4.4 | 11.3% | – |
| CCC(CC)NC(CC)c1cccc(OCC[C@]23CCC4C(CCC5C/C(=N/O)CC[C@@]54C)C2CC[C@@H]3OC)c1 (stereo partly drawn) [EM-6544] | 1.5 | 29% | 2.7 nM |
| CCC(NC1CCS(=O)(=O)CC1)c1cccc(OCC[C@]23CCC4C(CCC5CC(=O)CC[C@@]54C)C2CCC3O)c1 (stereo partly drawn) [EM-6836] | 2.4 | 62% | – |
| CC(C)(NCc1ccccc1)c1cccc(OCC[C@]23CCC4C(CCC5CC(=O)CC[C@@]54C)C2CC[C@@H]3O)c1 (stereo partly drawn) [EM-6708] | 27.5 | 62% | – |
| C[C@@H](c1cccc(OCC[C@]23CCC4C(CCC5CC(=O)CC[C@@]54C)C2CC[C@@H]3O)c1)N(C)C1CCCCC1 (stereo partly drawn) [EM-6413] | 0.1 | 176% and 114% | – |
| CN(Cc1cccc(OCC[C@]23CCC4C(CCC5CC(=O)CC[C@@]54C)C2CC[C@@H]3O)c1)C1CCCCCCC1 (stereo partly drawn) [EM-6424] | 2.9 | 136% | – |
| CC(C)(c1cccc(OCC[C@]23CCC4C(CCC5CC(=O)CC[C@@]54C)C2CC[C@@H]3O)c1)N1CCCCC1 (stereo partly drawn) [EM-6740] | 15 | 42.5% | – |
| CC1CCC(NCc2cccc(OCC[C@]34CCC5C(CCC6CC(=O)CC[C@@]65C)C3CC[C@@H]4O)c2)CC1 (stereo partly drawn) [EM-6423] | 5 | 43% | – |
| CCC(NC(C)C)c1cccc(OCC[C@]23CCC4C(CCC5=CC(=O)CC[C@@]54C)C2CC[C@@H]3O)c1 (stereo partly drawn) [EM-6960] | < 0.1 | 147% | – |
| CCC(CC)NCc1ccc(F)c(OCC[C@]23CCC4C(CCC5CC(=O)CC[C@@]54C)C2CC[C@@H]3OC)c1 (stereo partly drawn) [EM-6406] | 7.8 | 226% | – |
| CCCCC(NC(CC)CC)c1cccc(OCC[C@]23CCC4C(CCC5CC(=O)CC[C@@]54C)C2CCC3=O)c1 (stereo partly drawn) [EM-6896] | 3.2 | 314.6% | – |
| CCC(NC1CCOCC1)c1cccc(OCC[C@]23CCC4C(CCC5Cc6nocc6C[C@@]54C)C2CCC3O)c1 (stereo partly drawn) [EM-6908] | 7.4 | 13% | – |

| SMILES | IC50 [1, 2] [nM] | Androgen Receptor Binding (%) Human RBA R1881 = 100 (Human Androgen Receptor) | IC50 [1, 3] |
| --- | --- | --- | --- |
| CCC(CC)NCc1ccc(C#N)c(OCC[C@]23CCC4C(CCC5CC(=O)CC[C@@]54C)C2CC[C@@H]3O)c1 (stereo partly drawn) [EM-6495] | 4.7 | 83% and 102% | 2.5 nM |
| CCC(NC1CCOCC1)c1cccc(OCC[C@]23CCC4C(CCC5CC(=O)CC[C@@]54C)C2CC[C@@H]3O)c1 (stereo partly drawn) [EM-6666] | 0.16 | 211.3% | – |
| CCC(NC1CCCC1)c1cccc(OCC[C@]23CCC4C(CCC5CC(=O)CC[C@@]54C)C2CC[C@@H]3O)c1 (stereo partly drawn) [EM-6537] | 0.4 | 88% | 0.3 nM |
| CCC(Nc1ccncc1)c1cccc(OCC[C@]23CCC4C(CCC5CC(=O)CC[C@@]54C)C2CCC3O)c1 (stereo partly drawn) [EM-6857] | 63 | 5% | – |
| CC[C@H](NC1CCCCC1)c1cccc(OCC[C@]23CCC4C(CCC5CC(=O)CC[C@@]54C)C2CCC3O)c1 (stereo partly drawn) [EM-7055] | 0.64 | 242% | – |
| C[C@H]1CCCCC1NCc1cccc(OCC[C@]23CCC4C(CCC5CC(=O)CC[C@@]54C)C2CC[C@@H]3O)c1 (stereo partly drawn) [EM-6438] | 2.2 | 119% | – |
| O=C1C=C2CCC3C(CC[C@@]4(CCOc5cccc(CN6CCCCC6)c5)C3CC[C@@H]4O)C2CC1 (stereo partly drawn) [EM-6564] | 66 | 3.6% | – |
| C[C@H](c1cccc(OCC[C@]23CCC4C(CCC5C[C@@H](O)CC[C@@]54C)C2CC[C@@H]3O)c1)N(C)C1CCCCC1 (stereo partly drawn) [EM-6555] | 5.6 | 4.6% | – |
| CO[C@H]1CCC2C3CCC4CC(=NO)CC[C@]4(C)C3CC[C@@]21CCOc1cccc(C(C)NC2CCCCC2)c1 (stereo partly drawn) [EM-6533] | 8.6 | 10% | – |
| CCCCC(NC(CC)CC)c1cccc(OCC[C@]23CCC4C(CCC5CC(=O)CC[C@@]54C)C2CCC3O)c1 (stereo partly drawn) [EM-6906] | 0.5 | 372% | – |
| O=C1C=C2CCC3C(CC[C@@]4(CCOc5cccc(CNC6CCCCC6)c5)C3CC[C@@H]4O)C2CC1 (stereo partly drawn) [EM-6577] | 57 | 3.4% | – |
| C[C@]12CCC(=O)CC1CCC1C2CC[C@@]2(CCOc3cccc(CNC4CC5CCC4C5)c3)C1CC[C@@H]2O (stereo partly drawn) [EM-6470] | – | 34% and 62% | 3.5 nM and 2.4 nM |
| CN(C)CC(NC1CCCCC1)c1cccc(OCC[C@]23CCC4C(CCC5CC(=O)CC[C@@]54C)C2CCC3O)c1 (stereo partly drawn) [EM-7131] | 35 | 125.7% | – |
| CCCC(NC1CCCC1)c1cccc(OCC[C@]23CCC4C(CCC5CC(=O)CC[C@@]54C)C2CC[C@@H]3O)c1 (stereo partly drawn) [EM-6738] | 1.7 | 174.2% | – |
| CCCCS(=O)(=O)Cc1cccc(OCC[C@]23CCC4C5CCC(=O)C=C5CCC4C2CC[C@@H]3O)c1 (stereo partly drawn) [EM-6861] | 32 | 3.0% | – |
| CC[C@@H](NC1CCCCC1)c1cccc(OCC[C@]23CCC4C(CCC5CC(=O)CC[C@@]54C)C2CCC3O)c1 (stereo partly drawn) [EM-7062] | 0.7 | 535% | – |
| CCN(C1CCCCC1)[C@H](C)c1cccc(OCC[C@]23CCC4C(CCC5C[C@@H](O)CC[C@@]54C)C2CC[C@@H]3O)c1 (stereo partly drawn) [EM-6556] | 1.7 | 6.9% | – |
| CCCCC(NC1CCCCC1)c1cccc(OCC[C@]23CCC4C(CCC5CC(=O)CC[C@@]54C)C2CCC3=O)c1 (stereo partly drawn) [EM-6894] | 4.1 | 129.7% | – |
